Test results published in US6562796B2, “Derivatives of polyene macrolides and preparation and use thereof” (Micrologix Biotech Inc., priority 2000, dated 2003).
Marks after values point to notes of the source that are not given here.

Assays:
[1] = system: patients with systemic fungal infections; conditions: human, in vivo; cited from earlier work
[2] = system: Candida albicans; test: Minimum Fungicidal Concentration, plating from MIC wells on blood agar; format: cell-based; conditions: blood agar plates, 35° C., 48 hours
Description: (§1) For each compound Minimum Inhibitory Concentrations (MIC) were determined as described in Reference Method for Broth Dilution Antifungal Susceptibility Testing of Yeasts; Approved Standard; NCCLS document M27-A (ISBN 1-56238-328-0); NCCLS, 940 West Valley Road, Suite 1400, Wayne, Pa. 19087, 1997. […] Ten microliter samples were removed from the corresponding wells and deposited onto blood agar plates. Plates were incubated at 35° C. for 48 hours. The highest compound dilution at which no colonies are apparent on the plate was considered the MFC. Maximum non-lethal dose (NLD) data were also obtained for each product by initially intravenously administering a single 16 mg/kg dose to each of 4 mice in several groups. After review of findings, higher or lower doses were administered and a maximum non-lethal dose was determined. Ed50 data were also obtained for each compound. Efficacy was evaluated in mice injected with C. albicans. Therapeutic efficacy was defined as a 2 log reduction in kidney cfu relative to mean vehicle control.

[3] = system: dogs; conditions: compared with amphotericin B; cited from earlier work
[4] = system: Candida albicans; test: Minimum Inhibitory Concentration, broth dilution (NCCLS M27-A); format: cell-based
Description: Of course, compounds having MICs on the low end of these ranges, or even lower, are preferred. […] Toxicity is less of a concern for typical administration, as is water solubility.
as §1

[5] = system: rats; conditions: compared with amphotericin B; cited from earlier work
[6] = Water solubility
[7] = system: mice; test: Maximum non-lethal dose, single intravenous dose in mice; format: in vivo
Description: as §1

[8] = system: C. albicans; test: Efficacy in mice injected with C. albicans (kidney cfu reduction); format: in vivo, Candida albicans; conditions: for ED50: Candida albicans, mice injected with C. albicans, efficacy = 2 log reduction in kidney cfu relative to mean vehicle control, read-out: ED50 Kidney CFU Red.; for level of Candida albicans in the kidneys of mice (FIG. 1): treated mice, compared with AME
Description: as §1

[9] = system: mice; conditions: cited from earlier work

Compound | neurological toxicity in clinical trial [1] | Micro. Data (DLM/CJ) MFC [2] | acute, nephro and hepto toxicity [3] | Micro. Data (DLM/CJ) MIC [4] | acute, nephro and hepto toxicity [5] | Water Sol. [6] | NLD (maximum non-lethal dose) [7] [mg/kg] | ED50 [8] [mg/kg] | level of Candida albicans in the kidneys of mice (FIG. 1) [8] | NLD (maximum non-lethal dose), literature value [9]
COC(=O)[C@H]1[C@@H]2C[C@@H](O[C@@H]3O[C@H](C)[C@@H](O)[C@H](N)[C@@H]3O)/C=C/C=C/C=C/C=C/C=C/C=C/C=C/[C@H](C)[C@@H](O)[C@@H](C)[C@H](C)OC(=O)C[C@H](O)C[C@H](O)CC[C@@H](O)[C@H](O)C[C@H](O)C[C@](O)(C[C@@H]1O)O2 [AME, amphotericin B methyl ester] | many patients developed progressive neurological dysfunction associated with white matter degeneration | 2 | lower acute, nephro and hepto toxicity than amphotericin B | 1 | lower acute, nephro and hepto toxicity than amphotericin B | – | – | – | – | –
COC(=O)C1C2C[C@@H](OC3O[C@H](C)[C@@H](O)[C@H](NC[C@@]4(O)OC[C@@H](O)[C@H](O)[C@@H]4O)[C@@H]3O)/C=C/C=C/C=C/C=C/C=C/C=C/C=C/[C@H](C)[C@@H](O)[C@@H](C)[C@H](C)OC(=O)C[C@H](O)C[C@H](O)CC[C@@H](O)[C@H](O)C[C@H](O)C[C@](O)(C[C@@H]1O)O2 (stereo partly shown) [Compound C1, N-tagatopyranose-amphotericin B methyl ester] | – | 2 | – | 2 | – | >16 mg/mL | >64 | < 3 | significantly lower | –
COC(=O)C1C2C[C@@H](OC3O[C@H](C)[C@@H](O)[C@H](NC[C@@]4(O)OC[C@@H](O)[C@@H](OC5O[C@H](CO)[C@H](O)[C@H](O)[C@H]5O)[C@@H]4O)[C@@H]3O)/C=C/C=C/C=C/C=C/C=C/C=C/C=C/[C@H](C)[C@@H](O)[C@@H](C)[C@H](C)OC(=O)C[C@H](O)C[C@H](O)CC[C@@H](O)[C@H](O)C[C@H](O)C[C@](O)(C[C@@H]1O)O2 (stereo partly shown) [Compound C2] | – | 2 | – | 2 | – | >16 mg/mL | >64 | < 3 | significantly lower | –
C[C@@H]1[C@H](O)[C@@H](C)/C=C/C=C/C=C/C=C/C=C/C=C/C=C/[C@H](O[C@@H]2O[C@H](C)[C@@H](O)[C@H](N)[C@@H]2O)C[C@@H]2O[C@](O)(C[C@@H](O)C[C@@H](O)[C@H](O)CC[C@@H](O)C[C@@H](O)CC(=O)O[C@H]1C)C[C@H](O)[C@H]2C(=O)O [AmB, amphotericin B, reference compound] | – | 2 | – | 0.5 | – | negligible | – | 3.58 | – | 2-4* mg/kg
